System: K12877-001-R-J1-PDC complex spheroid viability
Assay: Anticancer human tumor K12877-001-R-J1-PDC patient-derived lung adenocarcinoma cell line growth inhibition [RAS]
Conditions: for viability, T/C: stronger effect = lower value
Method in brief: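 Tumour cells grown as complex spheroids with HUVEC endothelial cells and mesenchymal stem cells, treated with RAS pathway inhibitor combinations. Each agent spans half-log steps from near clinical Cmax, or 10 microM where Cmax is unknown.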

[1] = curve of first compound, second compound 0.000949 µM
[2] = curve of first compound, second compound 0.003 µM
[3] = curve of first compound, second compound 0.00949 µM
[4] = curve of first compound, second compound 0.03 µM
[5] = curve of first compound, second compound 0.0949 µM
[6] = curve of first compound, second compound 0.3 µM
[7] = second compound 0.000949 µM, first compound 0.0316 µM
[8] = second compound 0.000949 µM, first compound 0.1 µM
[9] = second compound 0.003 µM, first compound 0.0316 µM
[10] = second compound 0.003 µM, first compound 0.1 µM
[11] = second compound 0.00949 µM, first compound 0.0316 µM
[12] = second compound 0.00949 µM, first compound 0.1 µM
[13] = second compound 0.03 µM, first compound 0.0316 µM
[14] = second compound 0.03 µM, first compound 0.1 µM
[15] = second compound 0.0949 µM, first compound 0.0316 µM
[16] = second compound 0.0949 µM, first compound 0.1 µM
[17] = second compound 0.3 µM, first compound 0.0316 µM
[18] = second compound 0.3 µM, first compound 0.1 µM
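Note: spheroids exposed to agents for one week before readout.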

SMILES: CC(C)n1nc(-c2ccc3oc(N)nc3c2)c2c(N)ncnc21 + CCn1c(-c2cc(N3CCN(C)CC3)cnc2C(C)OC)c2c3cc(ccc31)-c1csc(n1)CC(NC(=O)C1CC1C)C(=O)N1CCCC(N1)C(=O)OCC(C)(C)C2
- IC50 [1]: 28.4 nM
- IC50 [2]: 23.4 nM
- IC50 [3]: 17.7 nM
- IC50 [4]: 13.9 nM
- IC50 [5]: 9.11 nM
- IC50 [6]: 6.13 nM
- viability, T/C (second compound 0.000949 µM, first compound 0.000316 µM): 73.8%
- viability, T/C (second compound 0.000949 µM, first compound 0.001 µM): 74.5%
- viability, T/C (second compound 0.000949 µM, first compound 0.00316 µM): 95.7%
- viability, T/C (second compound 0.000949 µM, first compound 0.01 µM): 104%
- viability, T/C [7]: 46.1%
- viability, T/C [8]: 24.8%
- viability, T/C (second compound 0.003 µM, first compound 0.000316 µM): 71.2%
- viability, T/C (second compound 0.003 µM, first compound 0.001 µM): 74%
- viability, T/C (second compound 0.003 µM, first compound 0.00316 µM): 69.9%
- viability, T/C (second compound 0.003 µM, first compound 0.01 µM): 90.8%
- viability, T/C [9]: 40.6%
- viability, T/C [10]: 22.1%
- viability, T/C (second compound 0.00949 µM, first compound 0.000316 µM): 64.1%
- viability, T/C (second compound 0.00949 µM, first compound 0.001 µM): 65.4%
- viability, T/C (second compound 0.00949 µM, first compound 0.00316 µM): 76.6%
- viability, T/C (second compound 0.00949 µM, first compound 0.01 µM): 75.4%
- viability, T/C [11]: 29.3%
- viability, T/C [12]: 17.3%
- viability, T/C (second compound 0.03 µM, first compound 0.000316 µM): 77.1%
- viability, T/C (second compound 0.03 µM, first compound 0.001 µM): 92.2%
- viability, T/C (second compound 0.03 µM, first compound 0.00316 µM): 110%
- viability, T/C (second compound 0.03 µM, first compound 0.01 µM): 61.1%
- viability, T/C [13]: 28%
- viability, T/C [14]: 16.2%
- viability, T/C (second compound 0.0949 µM, first compound 0.000316 µM): 103%
- viability, T/C (second compound 0.0949 µM, first compound 0.001 µM): 102%
- viability, T/C (second compound 0.0949 µM, first compound 0.00316 µM): 76.5%
- viability, T/C (second compound 0.0949 µM, first compound 0.01 µM): 49.1%
- viability, T/C [15]: 22.3%
- viability, T/C [16]: 13.6%
- viability, T/C (second compound 0.3 µM, first compound 0.000316 µM): 79.1%
- viability, T/C (second compound 0.3 µM, first compound 0.001 µM): 92.5%
- viability, T/C (second compound 0.3 µM, first compound 0.00316 µM): 60.3%
- viability, T/C (second compound 0.3 µM, first compound 0.01 µM): 40.3%
- viability, T/C [17]: 19.3%
- viability, T/C [18]: 11.7%

SMILES: Nc1ccn(C2OC(CO)C(O)C2(F)F)c(=O)n1 (stereo unspecified)
- viability, T/C (compound 0.00316 µM): 105% [middle of 4 runs]
- viability, T/C (compound 0.01 µM): 90.8% [middle of 4 runs]
- viability, T/C (compound 0.0316 µM): 7.36% [middle of 4 runs]
- viability, T/C (compound 0.1 µM): 5.6% [middle of 4 runs]
- viability, T/C (compound 0.316 µM): 5.52% [middle of 4 runs]
- viability, T/C (compound 1 µM): 5.95% [middle of 4 runs]
- IC50 (curve of compound): 17.6 nM [middle of 4 runs]

SMILES: CCC(CC)c1cc(NC2CCC(N)C2)n2nccc2n1 (stereo unspecified) + CCn1c(-c2cccnc2C(C)OC)c2c3cc(ccc31)N1CCOC(CC(NC(=O)C(C(C)C)N(C)C(=O)C3(F)CCN(C(=O)C#CC(C)(C)N(C)C)CC3)C(=O)N3CCCC(N3)C(=O)OCC(C)(C)C2)C1
- IC50 [1]: 1300 nM
- IC50 [2]: 1020 nM
- IC50 [3]: 877 nM
- IC50 [4]: 903 nM
- IC50 [5]: 808 nM
- IC50 [6]: 508 nM
- viability, T/C [7]: 78.9%
- viability, T/C [8]: 83.2%
- viability, T/C (second compound 0.000949 µM, first compound 0.316 µM): 80.2%
- viability, T/C (second compound 0.000949 µM, first compound 1 µM): 64.3%
- viability, T/C (second compound 0.000949 µM, first compound 3.16 µM): 1.95%
- viability, T/C (second compound 0.000949 µM, first compound 10 µM): 0.98%
- viability, T/C [9]: 72%
- viability, T/C [10]: 85.8%
- viability, T/C (second compound 0.003 µM, first compound 0.316 µM): 72.8%
- viability, T/C (second compound 0.003 µM, first compound 1 µM): 51%
- viability, T/C (second compound 0.003 µM, first compound 3.16 µM): 1.27%
- viability, T/C (second compound 0.003 µM, first compound 10 µM): 1.35%
- viability, T/C [11]: 85.2%
- viability, T/C [12]: 70.9%
- viability, T/C (second compound 0.00949 µM, first compound 0.316 µM): 69.5%
- viability, T/C (second compound 0.00949 µM, first compound 1 µM): 48%
- viability, T/C (second compound 0.00949 µM, first compound 3.16 µM): 1.95%
- viability, T/C (second compound 0.00949 µM, first compound 10 µM): 0.75%
- viability, T/C [13]: 74%
- viability, T/C [14]: 70.5%
- viability, T/C (second compound 0.03 µM, first compound 0.316 µM): 69.2%
- viability, T/C (second compound 0.03 µM, first compound 1 µM): 48%
- viability, T/C (second compound 0.03 µM, first compound 3.16 µM): 1.63%
- viability, T/C (second compound 0.03 µM, first compound 10 µM): 1.21%
- viability, T/C [15]: 83.6%
- viability, T/C [16]: 70.2%
- viability, T/C (second compound 0.0949 µM, first compound 0.316 µM): 75%
- viability, T/C (second compound 0.0949 µM, first compound 1 µM): 44.2%
- viability, T/C (second compound 0.0949 µM, first compound 3.16 µM): 1.61%
- viability, T/C (second compound 0.0949 µM, first compound 10 µM): 1.11%
- viability, T/C [17]: 76.8%
- viability, T/C [18]: 69.9%
- viability, T/C (second compound 0.3 µM, first compound 0.316 µM): 61.7%
- viability, T/C (second compound 0.3 µM, first compound 1 µM): 33.5%
- viability, T/C (second compound 0.3 µM, first compound 3.16 µM): 1.98%
- viability, T/C (second compound 0.3 µM, first compound 10 µM): 0.91%
